Legend:
SF-268 = assay: Growth inhibition of human SF268 cells assessed as cell growth at 10 uM incubated for 48 hrs by sulforhodamine B assay relative to control; assay type: functional; settings: SF-268, 48 h, read-out: Activity
LOX IMVI [1] = assay: Growth inhibition of human LOXIMVI cells assessed as cell growth at 10 uM incubated for 48 hrs by sulforhodamine B assay relative to control; assay type: functional; settings: read-out: Activity
LOX IMVI [2] = assay: Growth inhibition of human LOXIMVI cells assessed as cell growth at 0.1 uM incubated for 48 hrs by sulforhodamine B assay relative to control; assay type: functional; settings: read-out: Activity
HL-60(TB) = assay: Growth inhibition of human HL-60(TB) cells assessed as cell growth at 0.1 uM incubated for 48 hrs by sulforhodamine B assay relative to control; assay type: functional; settings: HL-60, 48 h, read-out: Activity
OVCAR-8 = assay: Growth inhibition of human OVCAR8 cells assessed as cell growth at 10 uM incubated for 48 hrs by sulforhodamine B assay relative to control; assay type: functional; settings: OVCAR-8, 48 h, read-out: Activity
MDA-MB-435 = assay: Growth inhibition of human MDA-MB-435 cells assessed as cell growth at 10 uM incubated for 48 hrs by sulforhodamine B assay relative to control; assay type: functional; settings: MDA-MB-435, 48 h, read-out: Activity
M14 = assay: Growth inhibition of human M14 cells assessed as cell growth at 10 uM incubated for 48 hrs by sulforhodamine B assay relative to control; assay type: functional; settings: M14, 48 h, read-out: Activity
SNB-19 = assay: Growth inhibition of human SNB19 cells assessed as cell growth at 1 uM incubated for 48 hrs by sulforhodamine B assay relative to control; assay type: functional; settings: SNB-19, 48 h, read-out: Activity
Hs-578T = assay: Growth inhibition of human Hs578T cells assessed as cell growth at 10 uM incubated for 48 hrs by sulforhodamine B assay relative to control; assay type: functional; settings: read-out: Activity
HCC 2998 = assay: Growth inhibition of human HCC2998 cells assessed as cell growth at 10 uM incubated for 48 hrs by sulforhodamine B assay relative to control; assay type: functional; settings: HCC 2998, 48 h, read-out: Activity
DU-145 = assay: Growth inhibition of human DU145 cells assessed as cell growth at 1 uM incubated for 48 hrs by sulforhodamine B assay relative to control; assay type: functional; settings: DU-145, 48 h, read-out: Activity
COLO 205 [3] = assay: Growth inhibition of human COLO205 cells assessed as cell growth at 10 uM incubated for 48 hrs by sulforhodamine B assay relative to control; assay type: functional; settings: COLO 205, 48 h, read-out: Activity
RXF 393 = assay: Growth inhibition of human RXF393 cells assessed as cell growth at 10 uM incubated for 48 hrs by sulforhodamine B assay relative to control; assay type: functional; settings: RXF 393, 48 h, read-out: Activity
NCI-H460 = assay: Growth inhibition of human NCI-H460 cells assessed as cell growth at 10 uM incubated for 48 hrs by sulforhodamine B assay relative to control; assay type: functional; settings: NCI-H460, 48 h, read-out: Activity
CAKI-1 = assay: Growth inhibition of human Caki1 cells assessed as cell growth at 10 uM incubated for 48 hrs by sulforhodamine B assay relative to control; assay type: functional; settings: CAKI-1, 48 h, read-out: Activity
CCRF-CEM = assay: Growth inhibition of human CCRF-CEM cells incubated for 48 hrs by sulforhodamine B assay; assay type: functional, cell-based
Malme-3M = assay: Growth inhibition of human MALME-3M cells assessed as cell growth at 10 uM incubated for 48 hrs by sulforhodamine B assay relative to control; assay type: functional; settings: read-out: Activity
COLO 205 [4] = assay: Growth inhibition of human COLO205 cells assessed as cell growth at 0.1 uM incubated for 48 hrs by sulforhodamine B assay relative to control; assay type: functional; settings: COLO 205, 48 h, read-out: Activity
MDA-MB-468 = assay: Growth inhibition of human MDA-MB-468 cells incubated for 48 hrs by sulforhodamine B assay; assay type: functional, cell-based; settings: MDA-MB-468, 48 h
HCT-15 = assay: Growth inhibition of human HCT15 cells assessed as cell growth at 10 uM incubated for 48 hrs by sulforhodamine B assay relative to control; assay type: functional; settings: HCT-15, 48 h, read-out: Activity
786-0 = assay: Growth inhibition of human 786-0 cells assessed as cell growth at 10 uM incubated for 48 hrs by sulforhodamine B assay relative to control; assay type: functional; settings: 786-0, 48 h, read-out: Activity
SR = assay: Growth inhibition of human SR cells assessed as cell growth at 1 uM incubated for 48 hrs by sulforhodamine B assay relative to control; assay type: functional; settings: read-out: Activity
SW-620 = assay: Growth inhibition of human SW620 cells assessed as cell growth at 10 uM incubated for 48 hrs by sulforhodamine B assay relative to control; assay type: functional; settings: SW-620, 48 h, read-out: Activity
MCF7 = assay: Growth inhibition of human MCF7 cells assessed as cell growth at 10 uM incubated for 48 hrs by sulforhodamine B assay relative to control; assay type: functional; settings: MCF7, 48 h, read-out: Activity
SK-MEL-5 [5] = assay: Growth inhibition of human SK-MEL-5 cells assessed as cell growth at 10 uM incubated for 48 hrs by sulforhodamine B assay relative to control; assay type: functional; settings: SK-MEL-5, 48 h, read-out: Activity
OVCAR-4 = assay: Growth inhibition of human OVCAR4 cells assessed as cell growth at 10 uM incubated for 48 hrs by sulforhodamine B assay relative to control; assay type: functional; settings: OVCAR-4, 48 h, read-out: Activity
SN12C = assay: Growth inhibition of human SN12C cells assessed as cell growth at 10 uM incubated for 48 hrs by sulforhodamine B assay relative to control; assay type: functional; settings: read-out: Activity
KM12 = assay: Growth inhibition of human KM12 cells incubated for 48 hrs by sulforhodamine B assay; assay type: functional, cell-based; settings: KM12, 48 h
NCI-H23 = assay: Growth inhibition of human NCI-H23 cells assessed as cell growth at 10 uM incubated for 48 hrs by sulforhodamine B assay relative to control; assay type: functional; settings: NCI-H23, 48 h, read-out: Activity
SK-MEL-5 [6] = assay: Growth inhibition of human SK-MEL-5 cells assessed as cell growth at 100 uM incubated for 48 hrs by sulforhodamine B assay relative to control; assay type: functional; settings: SK-MEL-5, 48 h, read-out: Activity
UO-31 = assay: Growth inhibition of human UO31 cells assessed as cell growth at 10 uM incubated for 48 hrs by sulforhodamine B assay relative to control; assay type: functional; settings: UO-31, 48 h, read-out: Activity
NCI-H522 = assay: Growth inhibition of human NCI-H522 cells assessed as cell growth at 1 uM incubated for 48 hrs by sulforhodamine B assay relative to control; assay type: functional; settings: NCI-H522, 48 h, read-out: Activity
[7] = read-out: LC50 (the source's name)
[8] = read-out: pLC50 (the source's name) (converted)

O=C(Nc1cccc(-n2cc(-c3ccncc3)c(-c3cc(O)cc(Cl)c3)n2)c1)Nc1ccc(Cl)c(C(F)(F)F)c1
growth at 10 µM (SF-268): 42.1% | growth at 10 µM (LOX IMVI [1]): 2.08% | growth at 0.1 µM (LOX IMVI [2]): 95% | growth at 0.1 µM (HL-60(TB)): 89% | growth at 10 µM (OVCAR-8): 3.69% | growth at 10 µM (MDA-MB-435): 9.57% | growth at 10 µM (M14): -16.8% | growth at 1 µM (SNB-19): 104% | growth at 10 µM (Hs-578T): 21.7% | growth at 10 µM (HCC 2998): 34.3% | growth at 1 µM (DU-145): 96% | growth at 10 µM (COLO 205 [3]): 63.4% | growth at 10 µM (RXF 393): -49.5% | growth at 10 µM (NCI-H460): 3.75% | growth at 10 µM (CAKI-1): 29.1% | GI50 (CCRF-CEM; read-out: GI50): 2.73 µM | CC50 (CCRF-CEM; [7]): > 100 µM | TGI (CCRF-CEM; read-out: TGI): 85 µM | GI50 (CCRF-CEM; read-out: pGI50 (converted)): 2.75 µM | CC50 (CCRF-CEM; [8]): > 100 µM | TGI (CCRF-CEM; read-out: pTGI (converted)): 8.91 µM | growth at 10 µM (Malme-3M): -24.9% | growth at 0.1 µM (COLO 205 [4]): 95% | IC50 (MDA-MB-468): 2.08 µM | GI50 (MDA-MB-468; read-out: GI50): 2.05 µM | CC50 (MDA-MB-468; [7]): > 100 µM | TGI (MDA-MB-468; read-out: TGI): 84.2 µM | GI50 (MDA-MB-468; read-out: pGI50 (converted)): 2.63 µM | CC50 (MDA-MB-468; [8]): > 100 µM | TGI (MDA-MB-468; read-out: pTGI (converted)): 8.51 µM | growth at 10 µM (HCT-15): 5.79% | growth at 10 µM (786-0): -29.8% | growth at 1 µM (SR): 57% | growth at 10 µM (SW-620): -33.6% | growth at 10 µM (MCF7): 13.4% | growth at 10 µM (SK-MEL-5 [5]): 23.8% | growth at 10 µM (OVCAR-4): 31.6% | growth at 10 µM (SN12C): 34.6% | GI50 (KM12; read-out: GI50): 2.5 µM | CC50 (KM12; [7]): 47.2 µM | TGI (KM12; read-out: TGI): 90.6 µM | GI50 (KM12; read-out: pGI50 (converted)): 2.57 µM | CC50 (KM12; [8]): 46.8 µM | TGI (KM12; read-out: pTGI (converted)): 9.77 µM | growth at 10 µM (NCI-H23): 10.5% | growth at 100 µM (SK-MEL-5 [6]): -97% | growth at 10 µM (UO-31): 18.5% | growth at 1 µM (NCI-H522): 51%

O=C(Nc1cccc(-n2cc(-c3ccncc3)c(-c3cc(O)cc(Cl)c3)n2)c1)Nc1ccc(Cl)c(Cl)c1
growth at 10 µM (SF-268): 16.2% | growth at 10 µM (LOX IMVI [1]): -84.7% | growth at 0.1 µM (LOX IMVI [2]): 105% | growth at 0.1 µM (HL-60(TB)): 100% | growth at 10 µM (OVCAR-8): -14.8% | growth at 10 µM (MDA-MB-435): -33.3% | growth at 10 µM (M14): -69.2% | growth at 1 µM (SNB-19): 90% | growth at 10 µM (Hs-578T): -6.42% | growth at 10 µM (HCC 2998): 0.57% | growth at 1 µM (DU-145): 90% | growth at 10 µM (COLO 205 [3]): 22.4% | growth at 10 µM (RXF 393): -70.3% | growth at 10 µM (NCI-H460): 0.21% | growth at 10 µM (CAKI-1): 5.31% | GI50 (CCRF-CEM; read-out: GI50): 2.12 µM | CC50 (CCRF-CEM; [7]): > 100 µM | GI50 (CCRF-CEM; read-out: pGI50 (converted)): 2.14 µM | CC50 (CCRF-CEM; [8]): > 100 µM | growth at 10 µM (Malme-3M): -35.1% | growth at 0.1 µM (COLO 205 [4]): 103% | IC50 (MDA-MB-468): 1.71 µM | GI50 (MDA-MB-468; read-out: GI50): 1.7 µM | CC50 (MDA-MB-468; [7]): > 100 µM | TGI (MDA-MB-468; read-out: TGI): 70.9 µM | GI50 (MDA-MB-468; read-out: pGI50 (converted)): 1.7 µM | CC50 (MDA-MB-468; [8]): > 100 µM | TGI (MDA-MB-468; read-out: pTGI (converted)): 7.08 µM | growth at 10 µM (HCT-15): -25.3% | growth at 10 µM (786-0): -72.1% | growth at 1 µM (SR): 62% | growth at 10 µM (SW-620): -33.8% | growth at 10 µM (MCF7): 2.74% | growth at 10 µM (SK-MEL-5 [5]): -53% | growth at 10 µM (OVCAR-4): 10.7% | growth at 10 µM (SN12C): 14.9% | GI50 (KM12; read-out: GI50): 1.5 µM | CC50 (KM12; [7]): 9 µM | TGI (KM12; read-out: TGI): 36.9 µM | GI50 (KM12; read-out: pGI50 (converted)): 1.51 µM | CC50 (KM12; [8]): 9.12 µM | TGI (KM12; read-out: pTGI (converted)): 3.72 µM | growth at 10 µM (NCI-H23): -20.4% | growth at 100 µM (SK-MEL-5 [6]): -78% | growth at 10 µM (UO-31): -41.2% | growth at 1 µM (NCI-H522): 54%

From ChEMBL document CHEMBL4308841, “Synthesis, in vitro antiproliferative activity, and kinase inhibitory effects of pyrazole-containing diarylureas and diarylamides” (Eur J Med Chem, 2018)
